From PMC10901772, “Cytotoxic naphtho- and benzofurans from an endophytic fungus Epicoccum nigrum Ann-B-2 associated with Annona squamosa fruits” (Scientific Reports, 2024)
≈ marks a conversion by molar mass, not a printed value. Entries after “also recorded” stand apart in the source; their conditions may differ. Read-outs that look alike come from different tables or passages of the source.

Experiments:
Assay type in all cases: cell-based
[1] = tested on: Bacillus subtilis [DSM 10]; assay: MIC, 96-well plate serial dilution assay; settings: for MIC: DSM10, concentration range 67 to 0.5 µg/mL
[2] = tested on: Staphylococcus aureus [DSM 346]; assay: MIC, 96-well plate serial dilution assay
[3] = tested on: remaining strains (S. aureus, M. smegmatis, M. hiemalis, C. albicans, R. glutinis); assay: MIC serial dilution assay, strains other than Bacillus subtilis; settings: all tested strains except Bacillus subtilis
[4] = tested on: Candida albicans [DSM 1665]; assay: MIC, 96-well plate serial dilution assay
[5] = tested on: mouse fibroblasts (L929); assay: In vitro cytotoxicity, MTT assay
Protocol: (§1) In vitro cytotoxicity studies (data expressed in the form of IC50 values) were performed over a concentration range between 1 and 37 µg/mL on a panel of seven cancer cell lines including human endocervical adenocarcinoma (KB3.1), mouse fibroblasts (L929), lung cancer (A549), squamous cancer (A431), prostate cancer (PC-3), breast cancer (MCF-7), and ovary cancer (SK-OV-3) using the MTT assay as previously reported.

[6] = tested on: human endocervical adenocarcinoma (KB3.1); assay: In vitro cytotoxicity, MTT assay; settings: KB 3-1, KB3.1, MTT
Protocol: as §1

[7] = tested on: Rhodotorula glutinis [DSM 10134]; assay: MIC, 96-well plate serial dilution assay
[8] = tested on: Mucor hiemalis [DSM 2656]; assay: MIC, 96-well plate serial dilution assay
[9] = tested on: Mycobacterium smegmatis [ATCC 700084]; assay: MIC, 96-well plate serial dilution assay
[10] = tested on: panel of seven cancer cell lines; assay: In vitro cytotoxicity, MTT assay, whole panel; settings: for antiproliferative / anticancer activity (in words): panel of cancer cell lines; for IC50: panel of seven different cancer cell lines, read-out: IC50 values, range over the panel
Protocol: as §1

[11] = tested on: lung cancer (A549); assay: In vitro cytotoxicity, MTT assay; settings: Homo sapiens
Protocol: as §1

[12] = tested on: squamous cancer (A431); assay: In vitro cytotoxicity, MTT assay; settings: Homo sapiens, A-431
Protocol: as §1

[13] = tested on: breast cancer (MCF-7); assay: In vitro cytotoxicity, MTT assay; settings: Homo sapiens, MCF7
Protocol: as §1

[14] = tested on: prostate cancer (PC-3); assay: In vitro cytotoxicity, MTT assay; settings: for sensitivity of PC-3 (in words): PC-3 (prostate cancer)
Protocol: as §1

[15] = tested on: ovary cancer (SK-OV-3); assay: In vitro cytotoxicity, MTT assay; settings: Homo sapiens
Protocol: as §1

[16] = DSM346, concentration range 67 to 0.5 µg/mL, read-out: MIC
[17] = DSM1665, concentration range 67 to 0.5 µg/mL, read-out: MIC
[18] = DSM10134, concentration range 67 to 0.5 µg/mL, read-out: MIC
[19] = DSM2656, concentration range 67 to 0.5 µg/mL, read-out: MIC
[20] = Mycolicibacterium smegmatis, ATCC700084, concentration range 67 to 0.5 µg/mL, read-out: MIC
[21] = concentration range 67 to 0.5 µg/mL

| Compound | MIC [1] [µg/mL] | MIC [2, 16] [µg/mL] | MIC [4, 17] [µg/mL] | IC50 [5] [µM] | IC50 [6] [µM] | MIC [7, 18] [µg/mL] | MIC [8, 19] [µg/mL] | MIC [9, 20] [µg/mL] | antiproliferative / anticancer activity (in words) [10] | IC50 ([11]; A549, MTT, read-out: IC50) [µM] | IC50 ([12]; A431, MTT, read-out: IC50) [µM] | IC50 ([13]; MCF-7, MTT, read-out: IC50) [nM] | IC50 ([14]; PC-3, MTT, read-out: IC50) [µM] | IC50 ([15]; SKOV-3, MTT, read-out: IC50) [µM] | IC50 [10] [µM] | further results |
| --- | --- | --- | --- | --- | --- | --- | --- | --- | --- | --- | --- | --- | --- | --- | --- | --- |
| Cc1c2c(c3c(C)c(O)c(C(=O)O)c(O)c3c1O)COC2 [Compound 1, epicoccofuran A] | 33.3 (≈ 115 µM) | > 67 | > 67 | 12 | 16 | > 67 | > 67 | > 67 | weak anticancer activity | – | – | – | – | – | – | antimicrobial activity against Bacillus subtilis (in words) [1]: moderate activity; also recorded: moderate antimicrobial activities; potency against Bacillus relative to the standard oxytetracycline [1]: almost half; antimicrobial activity against the remaining strains (in words) [3]: no potential activity |
| COC1OC(C2OCc3c(C)c(O)c(O)c(O)c32)c2c(O)c(O)c(O)c(C)c21 (stereo not shown) [Compound 2, flavimycin C] | 33.3 (≈ 84.9 µM) | > 67 | > 67 | 6.7 | 7.8 | > 67 | > 67 | > 67 | highest potency; also recorded: promising anticancer activities | 9.2 | 8.2 | 2700 | > 100 | 17 | 1.3 to 12 | antimicrobial activity against Bacillus subtilis (in words) [1]: moderate activity; also recorded: moderate antimicrobial activities; potency against Bacillus relative to the standard oxytetracycline [1]: almost half; antimicrobial activity against the remaining strains (in words) [3]: no potential activity; sensitivity of PC-3 (in words) [14]: insensitive |
| Cc1c(O)c(O)c2c(c1C=O)[C@@H]1O[C@H](O2)c2c(C)c(O)c(O)c(O)c2C1=O [Compound 3, epicocconigrone A] | 66.6 (≈ 178 µM) | > 67 | > 67 | 14 | 2.7 | > 67 | > 67 | > 67 | active against all tested cell lines; also recorded: promising anticancer activities | 10 | 7.8 | 2400 | 8 | 12 | 1.3 to 12 | – |
| Cc1c(O)c(O)c(O)c(C=O)c1-c1cc2c(C=O)c(C)c(O)c(O)c2o1 [Compound 4, epicoccolide B] | 66.6 (≈ 186 µM) | > 67 | > 67 | 19 | 21 | > 67 | > 67 | > 67 | weak anticancer activity | – | – | – | – | – | – | – |
| Cc1c(O)c(O)c(O)c2c1C(=O)OC2 [Compound 5, epicoccone] | > 67 | > 67 | > 67 | 7.5 | 6.1 | > 67 | > 67 | > 67 | active against all tested cell lines; also recorded: promising anticancer activities | 6.8 | 7.3 | 3800 | 8 | 8.2 | 1.3 to 12 | – |
| Cc1c(O)c(O)c(O)c2c1COC2 [Compound 6, 4,5,6-trihydroxy-7-methyl-1,3-dihydroisobenzofuran] | > 67 | > 67 | > 67 | 2.8 | 3.4 | > 67 | > 67 | > 67 | highest potency; also recorded: promising anticancer activities | 6.3 | 7.3 | 1300 | > 100 | 7.8 | 1.3 to 12 | sensitivity of PC-3 (in words) [14]: insensitive |
| C/C(=C\c1csc(C)n1)[C@@H]1C[C@@H]2O[C@]2(C)CCC[C@H](C)[C@H](O)[C@@H](C)C(=O)C(C)(C)[C@@H](O)CC(=O)O1 [Epothilone B, reference compound] | – | – | – | – | – | – | – | – | – | – | – | – | – | – | – | IC50 ([11]; A549): 5e-05 µM; IC50 [12]: 6e-05 µM; IC50 [13]: 0.07 nM; IC50 [14]: 9e-05 µM; IC50 [15]: 9e-05 µM |
| NC[C@H]1O[C@H](O[C@H]2[C@H](O)[C@@H](O[C@H]3O[C@H](CO)[C@@H](O)[C@H](N)[C@H]3O)[C@H](N)C[C@@H]2N)[C@H](O)[C@@H](O)[C@@H]1O [Kanamycin, reference compound] | – | – | – | – | – | – | – | – | – | – | – | – | – | – | – | MIC [9, 21]: 1.7^ K µg/ml |
| C[C@@H]1[C@H](O)[C@@H](C)/C=C/C=C/CC/C=C/C=C/C=C/C=C/C(O[C@H]2O[C@H](C)[C@@H](O)[C@H](N)[C@@H]2O)CC2O[C@](O)(CC(O)C(O)CCC(O)CC(O)CC(O)CC(=O)O[C@H]1C)CC(O)C2C(=O)O (stereo partly shown) [Nystatin, reference compound] | – | – | – | – | – | – | – | – | – | – | – | – | – | – | – | MIC [4, 21]: 2.1^N µg/ml; MIC [7, 21]: 2.1^N µg/ml; MIC [8, 21]: 2.1^N µg/ml |
| CN(C)[C@@H]1C(O)=C(C(N)=O)C(=O)[C@@]2(O)C(O)=C3C(=O)c4c(O)cccc4[C@@](C)(O)[C@H]3[C@H](O)[C@@H]12 [Oxytetracycline, reference compound] | 16.6 (≈ 36.1 µM) | – | – | – | – | – | – | – | – | – | – | – | – | – | – | – |
| Gentamycin [reference compound] | – | – | – | – | – | – | – | – | – | – | – | – | – | – | – | MIC [2, 21]: 0.21^G µg/ml |
